In brackets after ≈: the same amount, converted by molar mass. Read-outs that look alike come from different tables or passages of the source.
What was measured:
physchem = conditions: 20 °C
cyanide toxicity [1] = conditions: mouse, in vivo; cited from earlier work
cyanide toxicity [2] = conditions: in vivo; cited from earlier work
[3] = rabbit, in vivo

`O=C(O)C1(O)CSC(O)(C(=O)O)CS1` (stereo not shown) [Compound 2, 2,5-dihydroxy-1,4-dithiane-2,5-dicarboxylic acid] showed a solubility (physchem) of 200 mM (≈ 48.1 mg/mL).
In the case of `O.O.O.O.O=C(O)C1(O)CSC(O)(C(=O)O)CS1.[Na].[Na]` (stereo not shown) [Compound 3a, disodium 2,5-dihydroxy-1,4-dithiane-2,5-dicarboxylic acid tetrahydrate], the rescue (cyanide toxicity [1]) is given as “highly effective” and the rescue (cyanide toxicity [2]) is given as “highly effective”.
With `O=C([O-])C1(O)CSC(O)(C(=O)[O-])CS1.[Li+].[Li+]` (stereo not shown) [Compound 3b, Dilithium 2,5-Dihydroxy-1,4-dithiane-2,5-dicarboxylate] the solubility (physchem) was 1050 mM.
`O=C([O-])C1(O)CSC(O)(C(=O)[O-])CS1.[K+].[K+]` (stereo not shown) [Compound 3c, Dipotassium 2,5-Dihydroxy-1,4-dithiane-2,5-dicarboxylate] gave a solubility (physchem) of 570 mM.
With `NCCCC[C@H](N)C(=O)O.NCCCC[C@H](N)C(=O)O.O=C(O)C1(O)CSC(O)(C(=O)O)CS1` (stereo not shown) [lysine salt] the “absorption of the antidote” value [3] was “poor absorption” and the tolerability of injection [3] was “poorly tolerated”.

From patent US9757354B2 (priority 2015, dated 2017)
